The values that follow come from PMC7217481, “Amino acids serve as an important energy source for adult flukes of Clonorchis sinensis” (PLoS Neglected Tropical Diseases, 2020).

What is called IC50 is the point on the concentration scale where inhibition reaches its midpoint. High values mean weaker potency in that assay, low ones greater potency in that assay.

Molecules are shown by their SMILES.

The target in the experiment is T1, rCsFBPase (Clonorchis sinensis, UniProt G7YVB4).
T1 construct: gene CLF_111764; GenBank id is printed for the qPCR primers and is a genome scaffold
T1 sequence (G7YVB4 1-346): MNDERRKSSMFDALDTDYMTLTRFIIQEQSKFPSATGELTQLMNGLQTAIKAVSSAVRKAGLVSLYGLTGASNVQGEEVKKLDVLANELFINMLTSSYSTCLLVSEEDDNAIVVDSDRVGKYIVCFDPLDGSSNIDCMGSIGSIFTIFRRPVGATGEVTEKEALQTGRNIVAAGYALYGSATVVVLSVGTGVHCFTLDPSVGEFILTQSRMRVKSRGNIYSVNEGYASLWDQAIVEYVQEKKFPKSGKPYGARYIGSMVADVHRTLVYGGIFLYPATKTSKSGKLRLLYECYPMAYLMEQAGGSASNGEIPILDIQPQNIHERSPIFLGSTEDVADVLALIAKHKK
As to the kind of experiment: coupled G6PDH / phosphoglucose isomerase assay, NADP+ reduction at […] nm. It is filed as biochemical.

`Nc1ncnc2c1ncn2[C@@H]1O[C@H](COP(=O)(O)O)[C@@H](O)[C@H]1O` [AMP] returned an IC50 of 262 µM.

For the compound `CC(C)Cc1sc(N)nc1-c1ccc(P(=O)(O)O)o1` [MB05032, [5-[2-amino-5-(2-methylpropyl)-4-thiazolyl]-2-furanyl] phosphonic acid], inhibition was half-maximal at 4.9 µM (IC50).
